# Test results as given in patent US8415342B2, “Besifloxacin ophthalmic composition for the treatment or control of infection” (Bausch & Lomb Incorporated, priority 2008, dated 2013).
# Like-named read-outs stand apart in the source and are kept apart here.
# Assays:
# Type in all cases: cell-based
# [1] = tested on: Viridans streptococci; assay: MIC, CLSI broth microdilution, clinical isolates; settings: Viridans streptococci (N = 156)
# [2] = tested on: Streptococcus pneumoniae; assay: MIC, CLSI broth microdilution, clinical isolates
# [3] = tested on: Streptococcus pyogenes; assay: MIC, CLSI broth microdilution, clinical isolates; settings: Streptococcus pyogenes (N = 101)
# [4] = tested on: Moraxella catarrhalis; assay: MIC, CLSI broth microdilution, clinical isolates; settings: Moraxella catarrhalis (N = 101)
# [5] = tested on: Lancefield group C, F, G streptococci; assay: MIC, CLSI broth microdilution, clinical isolates; settings: G streptococci (N = 50)
# [6] = tested on: Legionella pneumophila; assay: microbe, parasite or virus in culture
# [7] = tested on: Staphylococcus hominis; assay: MIC, CLSI broth microdilution, clinical isolates; settings: Staphylococcus hominis (N = 50)
# [8] = tested on: Staphylococcus saprophyticus; assay: MIC, CLSI broth microdilution, clinical isolates; settings: Staphylococcus saprophyticus (N = 101)
# [9] = tested on: S. epidermidis; assay: MIC of clinical trial isolates, Studies 373, 433, 434; settings: Staphylococcus epidermidis, read-out: MIC90
# [10] = tested on: Staphylococcus aureus; assay: MIC, CLSI broth microdilution, clinical isolates; settings: for MIC50 / MIC90: Staphylococcus aureus
# [11] = tested on: S. aureus; assay: MIC of clinical trial isolates, Studies 373, 433, 434; settings: Staphylococcus aureus
# [12] = tested on: Staphylococcus epidermidis; assay: MIC, CLSI broth microdilution, clinical isolates; settings: for MIC50: Staphylococcus epidermidis
# [13] = tested on: Morganella morganii; assay: MIC, CLSI broth microdilution, clinical isolates; settings: Morganella morganii (N = 51)
# [14] = tested on: Klebsiella oxytoca; assay: MIC, CLSI broth microdilution, clinical isolates; settings: Klebsiella oxytoca (N = 50)
# [15] = tested on: Haemophilus influenzae; assay: MIC, CLSI broth microdilution, clinical isolates; settings: for MIC50 / MIC90: Haemophilus influenzae
# [16] = tested on: Streptococcus agalactiae; assay: MIC, CLSI broth microdilution, clinical isolates; settings: Streptococcus agalactiae (N = 100)
# [17] = tested on: Citrobacter koseri; assay: MIC, CLSI broth microdilution, clinical isolates; settings: Citrobacter koseri (N = 100)
# [18] = tested on: Staphylococcus warneri; assay: MIC, CLSI broth microdilution, clinical isolates; settings: Staphylococcus warneri (N = 50)
# [19] = tested on: Staphylococcus haemolyticus; assay: MIC, CLSI broth microdilution, clinical isolates; settings: Staphylococcus haemolyticus (N = 101)
# [20] = tested on: Staphylococcus lugdunensis; assay: MIC, CLSI broth microdilution, clinical isolates; settings: Staphylococcus lugdunensis (N = 15)
# [21] = Streptococcus pneumoniae (PISP, N = 2)
# [22] = Streptococcus pneumoniae (PRSP, N = 2)
# [23] = Streptococcus pneumoniae (PSSP, N = 31)
# [24] = Streptococcus pneumoniae (all phenotypes, N = 35)
# [25] = Staphylococcus aureus (CNS, N = 16)
# [26] = Staphylococcus aureus (CS, N = 14)
# [27] = Staphylococcus aureus (all phenotypes, N = 30)
# [28] = MRSA, Staphylococcus aureus (MRSA, N = 11)
# [29] = MSSA, Staphylococcus aureus (MSSA, N = 19)
# [30] = Staphylococcus epidermidis (CNS, N = 6)
# [31] = Staphylococcus epidermidis (CS, N = 9)
# [32] = Staphylococcus epidermidis (MSSE, N = 6)
# [33] = Staphylococcus epidermidis (all phenotypes, N = 15)
# [34] = Haemophilus influenzae (all phenotypes, N = 40)
# [35] = Haemophilus influenzae (bla negative, N = 24)
# [36] = Haemophilus influenzae (bla positive, N = 16)
smiles,measurement,setting,value
COc1c(N2CCNC(C)C2)c(F)cc2c(=O)c(C(=O)O)cn(C3CC3)c12 (stereo not shown) [Gatifloxacin],MIC Range,[1],0.03 to 8 µg/mL
same,MIC50,[1]; read-out: MIC50,0.25 µg/mL
same,MIC90,[1]; read-out: MIC90,0.5 µg/mL
same,% S,[2]; [21],100.0%
same,MIC Range,[2]; [21],0.25-0.25 μg/mL
same,% S,[2]; [22],100.0%
same,MIC Range,[2]; [22],0.12 to 0.25 µg/mL
same,% S,[2]; [23],96.8%
same,MIC50,[2]; [23],0.12 µg/mL
same,MIC90,[2]; [23],0.25 µg/mL
same,MIC Range,[2]; [23],0.015 to 4 µg/mL
same,% S,[2]; [24],97.1%
same,MIC Range,[2]; [24],0.015 to 4 µg/mL
same,MIC50,"[2]; Streptococcus pneumoniae (all phenotypes, N = 35), read-out: MIC50",0.12 µg/mL
same,MIC90,"[2]; Streptococcus pneumoniae (all phenotypes, N = 35), read-out: MIC90",0.25 µg/mL
same,% S,[3],100.0%
same,MIC Range,[3],0.06 to 0.5 µg/mL
same,MIC50,[3]; read-out: MIC50,0.12 µg/mL
same,MIC90,[3]; read-out: MIC90,0.25 µg/mL
same,MIC50,[4],0.015 µg/mL
same,MIC90,[4],0.015 µg/mL
same,MIC Range,[4],0.008 to 0.25 µg/mL
same,% S,[5],98.0%
same,MIC Range,[5],0.06 to 2 µg/mL
same,MIC50,[5]; read-out: MIC50,0.12 µg/mL
same,MIC90,[5]; read-out: MIC90,0.25 µg/mL
same,MIC50,[6]; Legionella pneumophila,0.03 µg/mL
same,MIC90,[6]; Legionella pneumophila,0.06 µg/mL
same,MIC Range,[6]; Legionella pneumophila (N = 50),0.015 to 0.06 µg/mL
same,% S,[7],32.0%
same,MIC50,[7],1 µg/mL
same,MIC90,[7],4 µg/mL
same,% S,[8],100.0%
same,MIC50,[8],0.12 µg/mL
same,MIC90,[8],0.25 µg/mL
same,MIC Range,[8],0.03 to 0.25 µg/mL
same,MIC90,"[9]; MRSE, S. epidermidis MRSE-CR, N 24",> 8 µg/mL
same,MIC90,"[9]; MRSE, S. epidermidis MRSE-CS, N 27",0.25 µg/mL
same,MIC90,"[9]; S. epidermidis MSSE-CR, N 10",8 µg/mL
same,MIC90,"[9]; S. epidermidis MSSE-CS, N 50",0.25 µg/mL
same,% S,[10]; [25],6.3%
same,% S,[10]; [26],92.9%
same,MIC Range,[10]; [26],0.03 to 1 µg/mL
same,% S,"[10]; Staphylococcus aureus (MRSA, N = 11)",18.2%
same,% S,"[10]; Staphylococcus aureus (MSSA, N = 19)",63.2%
same,% S,[10]; [27],46.7%
same,MIC50,[10]; [28],2 µg/mL
same,MIC90,[10]; [28],> 8 µg/mL
same,MIC50,[10]; [29],0.06 µg/mL
same,MIC90,[10]; [29],2 µg/mL
same,MIC50,[10]; [25],2 µg/mL
same,MIC90,[10]; [25],> 8 µg/mL
same,MIC50,[10]; [26],0.06 µg/mL
same,MIC90,[10]; [26],0.25 µg/mL
same,MIC50,[10]; [27],1 µg/mL
same,MIC90,[10]; [27],> 8 µg/mL
same,MIC90,"[11]; MRSA, S. aureus MRSA-CR, N 17, read-out: MIC90",> 8 µg/mL
same,MIC90,"[11]; MRSA, S. aureus MRSA-CS, N 9, read-out: MIC90 (due to limited isolates, highest MIC value is given)",0.25 µg/mL
same,MIC90,"[11]; MSSA, S. aureus MSSA-CR, N 17, read-out: MIC90",> 8 µg/mL
same,MIC90,"[11]; MSSA, S. aureus MSSA-CS, N 144, read-out: MIC90",0.25 µg/mL
same,% S,[12]; [30],50.0%
same,% S,[12]; [31],100.0%
same,MIC Range,[12]; [31],0.06-0.06 μg/mL
same,% S,"[12]; Staphylococcus epidermidis (MRSE, N = 9)",44.4%
same,% S,[12]; [32],83.3%
same,MIC Range,[12]; [32],0.06 to 1 µg/mL
same,% S,[12]; [33],60.0%
same,MIC90,[12]; [33],> 8 µg/mL
same,MIC50,"[12]; MRSE, Staphylococcus epidermidis (MRSE, N = 9)",1 µg/mL
same,MIC50,[12]; [30],1 µg/mL
same,MIC50,[12]; [31],0.06 µg/mL
same,MIC50,[12]; [32],0.06 µg/mL
same,MIC50,[12]; [33],0.06 µg/mL
same,% S,[13],74.5%
same,MIC50,[13],0.12 µg/mL
same,MIC90,[13],> 8 µg/mL
same,% S,[14],92.0%
same,MIC50,[14],0.03 µg/mL
same,MIC90,[14],0.5 µg/mL
same,MIC Range,[14],0.015 to 8 µg/mL
same,% S,[15]; [34],100.0%
same,MIC Range,[15]; [34],≦0.004-0.015 μg/mL
same,% S,[15]; [35],100.0%
same,MIC Range,[15]; [35],≦0.004-0.015 μg/mL
same,% S,[15]; [36],100.0%
same,MIC Range,[15]; [36],≦0.004-0.015 μg/mL
same,MIC50,[15]; [34],0.008 µg/mL
same,MIC90,[15]; [34],0.008 µg/mL
same,MIC50,[15]; [35],0.008 µg/mL
same,MIC90,[15]; [35],0.008 µg/mL
same,MIC50,[15]; [36],0.008 µg/mL
same,MIC90,[15]; [36],0.008 µg/mL
same,% S,[16],100.0%
same,MIC Range,[16],0.12 to 1 µg/mL
same,MIC50,[16]; read-out: MIC50,0.25 µg/mL
same,MIC90,[16]; read-out: MIC90,0.25 µg/mL
same,% S,[17],99.0%
same,MIC50,[17],0.015 µg/mL
same,MIC90,[17],0.12 µg/mL
same,% S,[18],76.0%
same,MIC50,[18],0.12 µg/mL
same,MIC90,[18],4 µg/mL
same,% S,[19],40.6%
same,MIC50,[19],2 µg/mL
same,MIC90,[19],8 µg/mL
same,% S,[20],73.3%
same,MIC50,[20],0.12 µg/mL
same,MIC90,[20],2 µg/mL
same,MIC Range,[20],0.03 to 8 µg/mL
